Source: article PMC4076047 (Nature chemical biology, 2014)
Where a name gives a salt, the structure may show the parent alone.

Target: Vps35 (retromer core complex Vps35–Vps29–Vps26) (Homo sapiens, UniProt Q96QK1+Q9UBQ0)
Experiment: microscale thermophoresis
Format: binding

Kd: ~5 µM
Compound: N=C(N)SCc1ccc(CSC(=N)N)s1 [compound 1, thiophene-2,5-diylbis(methylene) dicarbamimidothioate dihydrochloride]
